Tested on: cardiac gene expression
Assay: Microarray analysis of cardiac gene expression (GeneChip Mouse Genome 430 2.0)
Type: in vivo, mice
Details: for FC Transglutaminase 2, C polypeptide (Tgm2): CH vs normal FC 2.0
Protocol: Microarray Sample Preparation and Analysis. Animal hearts were rapidly removed, and the atria and right ventricles were cut and immediately plunged into TRIzol Reagent (Life Technologies). Total RNA was isolated following the manufacturer's instructions, purified by phenol-chloroform extraction and then ethanol precipitation, and 20 μg further processed for microarray analysis. Briefly, cDNA synthesis, in vitro transcription, and labeling and fragmentation to produce the oligonucleotide probes were performed as instructed by the GeneChip manufacturer (Affymetrix). The probes were first hybridized to a test array (Affymetrix) and then to the GeneChip Mouse Genome 430 2.0 Array, using the GeneChip Hybridization Oven 640. The chips were washed in a GeneChip Fluidics Station 450 (Affymetrix), and the results were visualized with a GeneChip G7 scanner (Affymetrix). RMA normalization, pairwise comparisons, Student's t test and Benjamini and Hochberg correction were subsequently performed using GeneSifter (VizX Labs, Seattle, Wash.) and Spotfire DecisionSite 8.3 (Spotfire, Inc., Somerville, Mass.).
Effects on Gene Expression Profile. […] One mouse heart was used for each array, and was performed in triplicate, generating a total of 12 arrays. GeneSifter was used to perform RMA normalization, pairwise comparisons of averaged signal intensity values, and Student's t-test with Benjamini and Hochberg correction, and Spotfire was used to perform pairwise comparisons. […] Additionally, genes that were altered between any two N or cardiac hypertrophy samples were removed, as these alterations most likely represented normal variations between mice.

## C[C@H]1c2cccc(O)c2C(=O)C2=C(O)[C@]3(O)C(=O)C(C(N)=O)=C(O)[C@@H](N(C)C)[C@@H]3[C@@H](O)[C@@H]21 [doxycycline]
GenBank AV274826, vs mice given only isoproterenol
  FC IBR domain containing 2 (Ibrdc2): −2.1
GenBank AV286265, heart, drug + isoproterenol vs isoproterenol-only mice, CH vs normal FC 3.9
  FC Xanthine dehydrogenase (Xdh): −3.0 fold
GenBank AV290688, heart, drug + isoproterenol vs isoproterenol-only mice, CH vs normal FC 3.3
  FC UDP-N-acetyl-alpha-D-galactosamine:polypeptide N-acetylgalactosaminyltransferase-like 2 (Galntl2): −2.8 fold
GenBank AV291679, vs mice given only isoproterenol
  FC Ras association (RalGDS/AF-6) domain family 4 (Neuropeptide signaling): −2.2
GenBank AV296217, vs mice given only isoproterenol
  FC Syntaxin 3 (Stx3): −1.6
GenBank AV318727, vs mice given only isoproterenol
  FC EST: 2.6
GenBank AV338062, vs mice given only isoproterenol
  FC F-box-WD40 repeat protein 6 (Fbxw6): 1.9
GenBank AW123929, vs mice given only isoproterenol
  FC EST: −1.8
GenBank AW208574, vs mice given only isoproterenol
  FC EST: −1.9
GenBank AW546141, vs mice given only isoproterenol
  FC Myristoylated alanine rich protein kinase C substrate (Marcks): 1.7
GenBank AW985925, heart, drug + isoproterenol vs isoproterenol-only mice, CH vs normal FC 2.8
  FC Transmembrane protein 23 (Tmem23): −2.1 fold
GenBank AY061760, vs mice given only isoproterenol
  FC Nuclear factor, interleukin 3, regulated (Nfil3): −2.5
GenBank BB003229, vs mice given only isoproterenol
  FC RasGEF domain family, member 1B (Rasgef1b): −2.4
GenBank BB041811, heart, drug + isoproterenol vs isoproterenol-only mice
  FC Transglutaminase 2, C polypeptide (Tgm2): −1.7 fold
GenBank BB069531, vs mice given only isoproterenol
  FC EST: 2.1
GenBank BB083808, vs mice given only isoproterenol
  FC G protein-coupled receptor 116 (Gprl16): −2.0
GenBank BB096843, vs mice given only isoproterenol
  FC EST: −1.8
GenBank BB106402, vs mice given only isoproterenol
  FC RAN binding protein 9 (Ranbp9): −2.6
GenBank BB109391, vs mice given only isoproterenol
  FC EST: −1.8
GenBank BB122084, heart, drug + isoproterenol vs isoproterenol-only mice, CH vs normal FC 2.3
  FC Tumorsuppressor St7-like (St7l): −2.1 fold
GenBank BB126077, vs mice given only isoproterenol
  FC Kyphoscoliosis peptidase (Ky): 1.8
GenBank BB127176, vs mice given only isoproterenol
  FC EST: −1.7
GenBank BB133079, vs mice given only isoproterenol
  FC Endothelial differentiation sphingolipid G-protein-coupled receptor 1 (Edg1): −2.4
GenBank BB193024, vs mice given only isoproterenol
  FC Interferon induced transmembrane protein 6 (Ifitm6): −3.3
GenBank BB217136, vs mice given only isoproterenol
  FC RAS, dexamethasone-induced 1 (Rasd1): −3.3
GenBank BB219003, vs mice given only isoproterenol
  FC EST: −2.1
GenBank BB222675, vs mice given only isoproterenol
  FC Inner membrane protein, mitochondrial (Immt): 4.9
GenBank BB236747, vs mice given only isoproterenol
  FC EST: −1.7
GenBank BB253720, vs mice given only isoproterenol
  FC Procollagen-proline, 2-oxoglutarate 4-dioxygenase (proline 4-hydroxylase), alpha 1 polypeptide (P4ha1): 1.9
GenBank BB257769, vs mice given only isoproterenol
  FC MAD homolog 1 (Smad1): −1.9
GenBank BB312992, vs mice given only isoproterenol
  FC EST: −2.1
GenBank BB326368, heart, drug + isoproterenol vs isoproterenol-only mice, CH vs normal FC 5.1
  FC Zi finger and BTB domain containing 16 (Zbtb16): −1.8 fold
GenBank BB328076, vs mice given only isoproterenol
  FC Kelch-like 24 (Khl24): −2.2
GenBank BB328405, heart, drug + isoproterenol vs isoproterenol-only mice, CH vs normal FC 5.6
  FC Tissue inhibitor of metalloproteinase 4 (Timp4): −2.8 fold
GenBank BB333759, vs mice given only isoproterenol
  FC Leucine-rich repeat-containing 8c (Lrrc8c): −1.7
GenBank BB335101, vs mice given only isoproterenol
  FC EST: 2.2
GenBank BB345784, vs mice given only isoproterenol
  FC Insulin receptor substrate 1 (Irs1): −1.7
GenBank BB354684, heart, drug + isoproterenol vs isoproterenol-only mice, CH vs normal FC −1.9
  FC Tribbles homolog 2 (Trib2): 1.6 fold
GenBank BB374879, vs mice given only isoproterenol
  FC EST: 2.7
GenBank BB405795, heart, drug + isoproterenol vs isoproterenol-only mice, CH vs normal FC 2.8
  FC Transcription factor Dp 2 (Tfdp2): −2.2 fold
GenBank BB434111, vs mice given only isoproterenol
  FC Inositol 1,4,5-trisphosphate 3-kinase B (Itpkb): 2.5
GenBank BB476794, vs mice given only isoproterenol
  FC EST: 1.9
GenBank BB490701, vs mice given only isoproterenol
  FC Histone 1, H1e (Hist1h2be): −1.7
GenBank BB493265, vs mice given only isoproterenol
  FC RNA, U22 small nucleolar: −1.8
GenBank BB503935, vs mice given only isoproterenol
  FC F-box and leucine-rich repeat protein 13 (Fbxl13): 1.9
GenBank BB534069, vs mice given only isoproterenol
  FC OTU domain, ubiquitin aldehyde binding 1 (Otub1): 2.0
GenBank BB535847, vs mice given only isoproterenol
  FC EST: −2.0
GenBank BB550124, heart, drug + isoproterenol vs isoproterenol-only mice
  FC Transglutaminase 2, C polypeptide (Tgm2): −1.7 fold
GenBank BB667216, heart, drug + isoproterenol vs isoproterenol-only mice, CH vs normal FC 2.3
  FC Von Willebrand factor homolog (Vwf): −1.7 fold
GenBank BB667395, vs mice given only isoproterenol
  FC Dehydrogenase E1 and transketolase domain containing 1 (Dhtkd1): −2.1
GenBank BB732903, vs mice given only isoproterenol
  FC Fibroblast growth factor receptor 3 (Fgfr3): −2.1
GenBank BB757992, vs mice given only isoproterenol
  FC Period homolog 3 (Per3): 2.3
GenBank BB794710, vs mice given only isoproterenol
  FC Serine palmitoyltransferase, long chain base subunit 2 (Sptlc2): −2.1
GenBank BB811478, vs mice given only isoproterenol
  FC Nucleoplasmin 3 (Npm3): 2.1
GenBank BB822465, vs mice given only isoproterenol
  FC Heterogeneous nuclear ribonucleoprotein R (Hnrpr): 1.8
GenBank BC003209, vs mice given only isoproterenol
  FC Integrator complex subunit 3 (Ints3): −2.2
GenBank BC003438, vs mice given only isoproterenol
  FC Solute carrier family 39 (iron-regulated transporter), member 1 (Slc40a1): −2.1
GenBank BC004057, heart, drug + isoproterenol vs isoproterenol-only mice, CH vs normal FC 2.8
  FC Transforming, acidic coiled-coil containing protein 2 (Tacc2): −2.1 fold
GenBank BC004826, vs mice given only isoproterenol
  FC Lutheran blood group (Auberger b antigen iluded) (Bcam): 1.6
GenBank BC005547, heart, drug + isoproterenol vs isoproterenol-only mice, CH vs normal FC −1.7
  FC Tubulin, beta 2c (Tubb2c): 2.5 fold

From US20080305186A1, “Method and Composition for the Treatment of Cardiac Hypertrophy” (BOARD OF REGENTS, THE UNIVERSITY OF TEXAS SYSTEM, priority 2007, published 2008)
